Data published in US8632914B2, “Triazolium and imidazolium salts and uses thereof” (University Health Network, priority 2008, dated 2014).

What was measured:
CHO cells = assay: Viability of CHO cells (MTT); format: cell-based; conditions: Cricetulus griseus; CHO cells; 48 hrs; MTT; mean of four determinations ± standard error; read-out: IC50 (μM) CHO cells
Description: CHO cells (ATCC, Manassas, Va.) were grown in RPMI-1640 supplemented with 10% fetal calf serum (Sigma, St. Louis, Mo.), 25 mM HEPES and gentimicin (RPMI-10). Cells were seeded in 96 well plates and grown to 50% confluency in 100 μL of RPMI-10 per well prior to the addition of either DMSO alone, or a 10 mg/mL solution of a test compound of the disclosure in DMSO. Compound gradients were prepared by adding 90 μL of RPMI-10 mixed with 10 μL of compound solution to the first well in the series, mixing, transferring 100 μL to the next well, and repeating until the next-to-last well was reached. After 48 hrs, the viability of the cells was determined by discarding the media in the wells and adding 100 μL of 10 mg/mL of 3-[4,5-dimethylthiazol-2-yl]-2,5-diphenyltetrazolium bromide (MTT, Sigma, St. Louis, Mo.) in RPMI-10, incubating the plates for a further hour, and then removing the media and adding 100 μL of DMSO and reading the absorbance at 650 nm (Campling, B. G.; Pym, J.; Galbraith, P. R.; Cole, S. P. Leuk Res 1988, 12(10), 823). The IC50 values of individual compounds were determined using a non-linear regression analysis of the dose-response curve using the computer program SigmaPlot (Jandel Scientific) and are reported in Table 1.

P. falciparum = assay: Anti-Plasmodium activity: viability of P. falciparum cultures (pLDH enzyme assay); format: cell-based; conditions: strain line ItG, 72 hr incubation, pLDH assay, mean of four determinations ± standard error, read-out: IC50 (μM) P. falciparum
Description: P. falciparum cultures were grown in O+ blood obtained by venipuncture of volunteers. Cultures of the laboratory line ItG were maintained by the method of Trager and Jensen (Trager, W.; Jensen, J. Science 1976, 193, 673) using RPM, 1640 supplemented with 10% human serum (a kind gift obtained under ethical consent from the Chemo Day Care department of the Princess Margaret Hospital, Toronto, Canada) and 50 μM hypoxanthine (RPMI-A). The effects of the test compounds on the viability of P. falciparum cultures were determined using a Lactate Dehydrogenase (LDH) enzyme assay specific to the enzyme found in Plasmodium falciparum (pLDH) (Prudhomme, J. G.; Sherman, I. W. J Immunol Methods 1999, 229(1-2), 169; Makler, M. T.; Ries, J. M.; Williams, J. A.; Bancroft, J. E.; Piper, R. C.; Gibbins, B. L.; Hinrichs, D. J. Am J Trop Med Hyg 1993, 48(6), 739). Briefly, compounds to be tested were dissolved in DMSO afford a solution having a concentration of 10 mg/mL. Two-fold serial dilutions were then produced in 50 μL of RPMI-A in a 96 well plate and then 50 μL of parasite culture (2% hematocrit, 2% parasitemia) were added to each well and the plates were then incubated at 37° C. in 95% N2, 3% CO2, and 2% O2 for 72 hr. The contents of the wells were then re-suspended using a multi-channel pipettor and a 15 μL sample was removed from each well and was added to 100 μL of pLDH enzyme assay mixture (Prudhomme, J. G.; Sherman, I. W. J Immunol Methods 1999, 229(1-2), 169). After 1 hr the absorbance of the wells at 650 nm was determined using a ThermoMax microplate reader (Molecular Devices, Sunnyvale, Calif.). The IC50 values of individual compounds were determined using a non-linear regression analysis of the data^19 using the computer program SigmaPlot (Jandel Scientific) and are reported in Table 1. The IC50 values represent the mean±standard error calculated from four independent determinations. To verify if the poor viability of the cultures was related to inhibited merozoite invasion, samples were taken from treated wells and the presence of extracellular merozoites was confirmed by microscopy.

[1] = set-up: species or system mice; conditions: mouse, in vivo
Description: (§1) Groups of 5 female Balb/C mice were infected with 10^6 P. berghei parasites i.p. and the parasitemia was estimated daily by examining a Giemsa-stained blood film. Once parasites were observed mice were infused once daily with saline alone (control groups) or with 18 ug/day of QT72, 18 ug/day of QT69, 0.24 ug/day of QT98, 60 ug/day of QT109, 9 ug/day of QT119, 7.5 ug/day of QT124 or 450 ug/day of chloroquine (CQ) for three days, as indicated by the arrows in FIG. 1. Average parasitemias are shown in FIG. 1 with standard error of the mean for each experimental group indicated by bars. The separate graphs in FIG. 1 indicate the results of two separate experiments.

P. berghei parasites = assay: In vivo evaluation: parasitemia in mice infected with P. berghei; set-up: species or system P. berghei in female Balb/C mice
Description: as §1

[2] = test system: P. falciparum ItG cultures; assay: Effect on synchronized ItG P. falciparum cultures (Giemsa stained blood films); format: cell-based; conditions: 20 uM; cultures synchronized at mature stage; 24 hrs incubation
Description: The culture was allowed to incubate for 24 hrs before samples were withdrawn and used to produce Giemsa stained blood films.

Row | Structure (SMILES) | IC50 (P. falciparum) | IC50 (CHO cells) | adverse effects on the health of the mice [1] | parasitemia vs saline control (P. berghei parasites; 9 ug/day infused once daily for three days, second experiment, day 14 (P<0.10), day 15 (P<0.03)) | parasitemia vs saline control (P. berghei parasites; 450 ug/day infused once daily for three days, second experiment, all days following day 6 (P<0.02)) | parasite forms in Giemsa stained blood films [2] | parasitemia vs saline control (P. berghei parasites; 18 ug/day infused once daily for three days, day 6 (P<0.10), day 7 (P<0.01), day 8 (P<0.01)) | parasitemia vs saline control (P. berghei parasites; 0.24 ug/day infused once daily for three days, day 7 (P<0.05))
1 | CCN(CC)CCCC(C)Nc1ccnc2cc(Cl)ccc12 (stereo not drawn) [chloroquine, reference compound] |  |  |  |  | significantly lower |  |  | 
2 | c1ccc(Cn2cc[n+](Cc3ccc4ccccc4c3)c2)cc1 [QT69, 1-Benzyl-3-(naphthalen-2-yl-methyl)imidazolium bromide] | 0.9 ± 0.2 µM | 108 ± 6 µM |  |  |  | parasite forms were seen associated with the outside of the red cells | significantly lower | 
3 | C[n+]1ccn(-c2ccc(-c3ccc(-n4cc[n+](C)c4)cc3)cc2)c1 [QT98, 4,4′-Bis-(3-methyl-1H-imidazolium-1-yl)biphenyl diiodide] | 0.009 ± 0.001 µM | 9 ± 2 µM |  |  |  |  |  | significantly lower

More lines, main results first:

Row | IC50 (P. falciparum) | Structure (SMILES) | IC50 (CHO cells) | adverse effects on the health of the mice [1] | parasitemia vs saline control (P. berghei parasites; 9 ug/day infused once daily for three days, second experiment, day 14 (P<0.10), day 15 (P<0.03)) | parasitemia vs saline control (P. berghei parasites; 450 ug/day infused once daily for three days, second experiment, all days following day 6 (P<0.02)) | parasite forms in Giemsa stained blood films [2] | parasitemia vs saline control (P. berghei parasites; 18 ug/day infused once daily for three days, day 6 (P<0.10), day 7 (P<0.01), day 8 (P<0.01)) | parasitemia vs saline control (P. berghei parasites; 0.24 ug/day infused once daily for three days, day 7 (P<0.05))
4 | 0.007 ± 0.003 µM | C[n+]1ccn(CCCCCCCCCCCCCn2cc[n+](C)c2)c1 [QT109, 1,13-Bis-(3-methylimidazolium-1-yl)tridecane diiodide] | 51 ± 11 µM | no adverse effects on the health of the mice were observed |  |  |  |  | 
5 | 0.0008 ± 0.0001 µM | CCC[n+]1ccn(CCCCCCCCCCCCn2cc[n+](CCC)c2)c1 [QT119, 1,12-Bis(3-propylimidazolium-1-yl)dodecane diiodide] | 78 ± 14 µM | no adverse effects on the health of the mice were observed | significantly lower |  |  |  | 
6 | 0.00016 ± 5e-05 µM | C[n+]1cnn(CCCCCCCCCCCCn2c[n+](C)cn2)c1 [QT124, 1,12-Bis(4-methyl-1H-1,2,4-triazolium-1-yl)dodecane diiodide] | 52 ± 9 µM | no adverse effects on the health of the mice were observed |  |  |  |  | 
